Each structure is given as a SMILES string.

The target in one experiment is Glutamate receptor ionotropic, AMPA (Rattus norvegicus, UniProt P19490+P19491+P19492+P19493). The experiment in a line: Inhibition of kainate-induced currents of rat ionotropic glutamate receptor AMPA expressed in Xenopus laevis oocytes. Format: cell-based, Oocyte.
Conditions: not given; call rule not given here
On to `CCCC(=O)N[C@@H](Cc1c[nH]c2ccccc12)C(=O)NCCCNCCCCNCCCN`, for which the IC50 turned out to be 300 nM. In other words, the sub-micromolar range.
With `CCCC(=O)N[C@@H](Cc1ccc2ccccc2c1)C(=O)NCCCNCCCCNCCCN`, it took 100 nM to reach half-maximal inhibition (IC50). Compared with the last compound, the IC50 is about 3-fold lower.
Still for that read-out and setting: for `CCCC(=O)N1Cc2ccc(O)cc2CC1C(=O)NCCCNCCCCNCCCN` (stereo not drawn) the value was 220 nM.
As to `CCCC(=O)N1C[C@H](OCc2ccccc2)C[C@H]1C(=O)NCCCNCCCCNCCCN`, the IC50 was determined as 260 nM.
In turn, `CCCC(=O)NC1(C(=O)NCCCNCCCCNCCCN)CCc2ccccc2C1` (stereo not drawn) came in with an IC50 of 250 nM.
Still for that read-out and setting: in the case of `CCCC(=O)N[C@@H](Cc1ccc(-c2ccccc2)cc1)C(=O)NCCCNCCCCNCCCN` it was 80 nM.
On to `CCCC(=O)N1CCC(C(=O)NCCCNCCCCNCCCN)(c2ccccc2)CC1`, for which the IC50 came to 1320 nM.
As to `CCCC(=O)N[C@H](Cc1ccc(O)cc1)C(=O)NCCCNCCCCNCCCN`, inhibition was half-maximal at 70 nM (IC50). This IC50 is about 19-fold lower than that of the compound before.
In the case of `CCCC(=O)N1c2ccccc2CC1C(=O)NCCCNCCCCNCCCN` (stereo not drawn), the 50% inhibitory concentration (IC50) is 1390 nM.
The same measure, in the same setting: for `CCCC(=O)NC1(C(=O)NCCCNCCCCNCCCN)Cc2ccccc2C1` the value was 190 nM; for `CCCC(=O)N[C@H](C(=O)NCCCNCCCCNCCCN)C(c1ccccc1)c1ccccc1`, 300 nM.
As for `CCCC(=O)N1C[C@@H](Oc2ccc3ccccc3c2)C[C@H]1C(=O)NCCCNCCCCNCCCN`, the IC50 came out at 1040 nM.
In the case of `CCCC(=O)N1Cc2ccccc2C[C@H]1C(=O)NCCCNCCCCNCCCN`, the 50% inhibitory concentration (IC50) was found to be 370 nM.
In the case of `CCCC(=O)N[C@H](C(=O)NCCCNCCCCNCCCN)c1ccccc1`, the concentration for half-maximal inhibition (IC50) came out at 320 nM. The IC50 values of the last two compounds are within 1.5-fold of each other.
The compound `CCCC(=O)N[C@@H](CCc1ccccc1)C(=O)NCCCNCCCCNCCCN` gave a half-inhibitory concentration (IC50) of 170 nM.
For the compound `CCCC(=O)N[C@@H](Cc1ccccc1)C(=O)NCCCNCCCCNCCCN`, half-maximal inhibition (IC50) was put at 430 nM. Compared with the last compound, the IC50 is about 2.5-fold higher.
`CCCC(=O)N[C@@H](Cc1ccc(O)cc1)C(=O)NCCCNCCCCNCCCN` [PHILANTHOTOXIN 343] had a half-inhibitory concentration (IC50) of 130 nM. This IC50 is about 3.3-fold lower than that of the compound before.

For a further experiment, the target named is Glutamate receptor ionotropic, AMPA (Rattus norvegicus, UniProt P19491+P19492+P19493+P19490). The experiment in a line: Inhibition of kainate-induced currents of rat ionotropic glutamate receptor AMPA expressed in Xenopus laevis oocytes; not active. Format: cell-based. The settings on record: oocyte.
Glutamate receptor ionotropic, AMPA (Rattus norvegicus, UniProt P19491+P19492+P19493+P19490), sequence (P19491 whole entry): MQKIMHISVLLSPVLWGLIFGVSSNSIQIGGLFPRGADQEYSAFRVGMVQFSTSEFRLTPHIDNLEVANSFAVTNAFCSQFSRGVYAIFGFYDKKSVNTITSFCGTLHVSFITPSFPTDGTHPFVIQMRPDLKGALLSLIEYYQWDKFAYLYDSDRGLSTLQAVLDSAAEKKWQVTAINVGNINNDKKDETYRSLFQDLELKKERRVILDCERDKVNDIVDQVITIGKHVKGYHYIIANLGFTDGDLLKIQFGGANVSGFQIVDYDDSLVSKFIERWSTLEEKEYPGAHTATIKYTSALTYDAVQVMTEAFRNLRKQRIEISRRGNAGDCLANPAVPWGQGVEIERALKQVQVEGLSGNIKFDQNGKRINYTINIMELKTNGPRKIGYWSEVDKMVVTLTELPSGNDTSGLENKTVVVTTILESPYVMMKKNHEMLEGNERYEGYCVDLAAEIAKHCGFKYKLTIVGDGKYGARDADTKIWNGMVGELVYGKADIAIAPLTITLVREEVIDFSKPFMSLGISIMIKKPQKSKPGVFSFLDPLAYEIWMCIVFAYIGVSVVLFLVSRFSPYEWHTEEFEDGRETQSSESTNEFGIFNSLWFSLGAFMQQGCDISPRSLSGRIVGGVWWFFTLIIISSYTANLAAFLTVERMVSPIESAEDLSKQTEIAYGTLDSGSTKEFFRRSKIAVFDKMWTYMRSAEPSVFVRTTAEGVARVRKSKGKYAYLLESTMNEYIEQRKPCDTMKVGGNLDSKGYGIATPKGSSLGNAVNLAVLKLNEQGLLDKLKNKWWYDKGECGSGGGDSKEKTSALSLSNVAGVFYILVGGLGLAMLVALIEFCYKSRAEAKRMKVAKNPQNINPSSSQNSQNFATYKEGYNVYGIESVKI
Glutamate receptor ionotropic, AMPA (Rattus norvegicus, UniProt P19491+P19492+P19493+P19490), sequence (P19492 whole entry): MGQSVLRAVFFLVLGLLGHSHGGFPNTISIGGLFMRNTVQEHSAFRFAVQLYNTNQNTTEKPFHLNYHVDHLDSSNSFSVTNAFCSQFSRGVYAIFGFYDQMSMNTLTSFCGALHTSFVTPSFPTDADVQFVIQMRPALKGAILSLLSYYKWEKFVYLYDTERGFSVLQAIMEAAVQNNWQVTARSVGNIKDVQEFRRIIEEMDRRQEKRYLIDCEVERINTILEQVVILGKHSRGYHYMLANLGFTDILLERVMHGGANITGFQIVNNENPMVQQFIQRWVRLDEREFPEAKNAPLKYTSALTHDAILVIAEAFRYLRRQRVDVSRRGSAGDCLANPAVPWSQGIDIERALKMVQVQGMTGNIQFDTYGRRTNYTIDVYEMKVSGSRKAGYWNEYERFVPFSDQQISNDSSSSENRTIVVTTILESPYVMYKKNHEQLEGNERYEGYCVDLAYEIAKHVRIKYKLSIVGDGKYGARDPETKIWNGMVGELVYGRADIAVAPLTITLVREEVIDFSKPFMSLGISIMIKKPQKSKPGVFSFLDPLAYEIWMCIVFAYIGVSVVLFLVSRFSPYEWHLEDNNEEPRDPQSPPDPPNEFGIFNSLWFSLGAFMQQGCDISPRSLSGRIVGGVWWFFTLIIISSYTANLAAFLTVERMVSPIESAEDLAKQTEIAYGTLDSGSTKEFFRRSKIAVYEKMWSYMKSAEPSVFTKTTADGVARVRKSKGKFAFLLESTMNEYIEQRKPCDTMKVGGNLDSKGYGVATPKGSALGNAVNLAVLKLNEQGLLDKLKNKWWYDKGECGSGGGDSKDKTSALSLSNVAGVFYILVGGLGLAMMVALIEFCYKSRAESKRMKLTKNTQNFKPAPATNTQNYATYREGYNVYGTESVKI
Glutamate receptor ionotropic, AMPA (Rattus norvegicus, UniProt P19491+P19492+P19493+P19490), sequence (P19493 whole entry): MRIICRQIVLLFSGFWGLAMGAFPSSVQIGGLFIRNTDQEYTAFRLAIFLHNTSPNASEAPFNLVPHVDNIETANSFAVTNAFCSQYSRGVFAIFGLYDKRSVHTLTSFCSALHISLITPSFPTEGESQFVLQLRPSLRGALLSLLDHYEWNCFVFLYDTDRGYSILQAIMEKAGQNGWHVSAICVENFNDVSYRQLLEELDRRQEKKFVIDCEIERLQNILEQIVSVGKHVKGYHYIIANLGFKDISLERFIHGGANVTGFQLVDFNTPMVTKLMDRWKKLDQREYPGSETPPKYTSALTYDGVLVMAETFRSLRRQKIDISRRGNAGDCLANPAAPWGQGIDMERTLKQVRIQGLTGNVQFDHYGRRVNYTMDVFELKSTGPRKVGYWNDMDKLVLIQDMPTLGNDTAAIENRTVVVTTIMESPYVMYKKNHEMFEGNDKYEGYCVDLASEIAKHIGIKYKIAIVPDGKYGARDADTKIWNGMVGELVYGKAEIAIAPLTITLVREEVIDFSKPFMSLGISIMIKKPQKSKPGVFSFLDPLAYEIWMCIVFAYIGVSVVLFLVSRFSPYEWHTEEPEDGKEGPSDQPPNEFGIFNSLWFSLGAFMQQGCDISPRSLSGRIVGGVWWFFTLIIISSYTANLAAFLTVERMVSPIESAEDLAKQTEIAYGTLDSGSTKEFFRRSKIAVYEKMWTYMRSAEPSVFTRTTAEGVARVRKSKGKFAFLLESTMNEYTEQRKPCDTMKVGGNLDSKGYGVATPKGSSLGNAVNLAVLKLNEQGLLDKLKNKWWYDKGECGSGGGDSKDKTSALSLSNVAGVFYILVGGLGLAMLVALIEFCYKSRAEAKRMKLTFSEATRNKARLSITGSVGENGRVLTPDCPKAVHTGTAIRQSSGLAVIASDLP
Glutamate receptor ionotropic, AMPA (Rattus norvegicus, UniProt P19491+P19492+P19493+P19490), sequence (P19490 whole entry): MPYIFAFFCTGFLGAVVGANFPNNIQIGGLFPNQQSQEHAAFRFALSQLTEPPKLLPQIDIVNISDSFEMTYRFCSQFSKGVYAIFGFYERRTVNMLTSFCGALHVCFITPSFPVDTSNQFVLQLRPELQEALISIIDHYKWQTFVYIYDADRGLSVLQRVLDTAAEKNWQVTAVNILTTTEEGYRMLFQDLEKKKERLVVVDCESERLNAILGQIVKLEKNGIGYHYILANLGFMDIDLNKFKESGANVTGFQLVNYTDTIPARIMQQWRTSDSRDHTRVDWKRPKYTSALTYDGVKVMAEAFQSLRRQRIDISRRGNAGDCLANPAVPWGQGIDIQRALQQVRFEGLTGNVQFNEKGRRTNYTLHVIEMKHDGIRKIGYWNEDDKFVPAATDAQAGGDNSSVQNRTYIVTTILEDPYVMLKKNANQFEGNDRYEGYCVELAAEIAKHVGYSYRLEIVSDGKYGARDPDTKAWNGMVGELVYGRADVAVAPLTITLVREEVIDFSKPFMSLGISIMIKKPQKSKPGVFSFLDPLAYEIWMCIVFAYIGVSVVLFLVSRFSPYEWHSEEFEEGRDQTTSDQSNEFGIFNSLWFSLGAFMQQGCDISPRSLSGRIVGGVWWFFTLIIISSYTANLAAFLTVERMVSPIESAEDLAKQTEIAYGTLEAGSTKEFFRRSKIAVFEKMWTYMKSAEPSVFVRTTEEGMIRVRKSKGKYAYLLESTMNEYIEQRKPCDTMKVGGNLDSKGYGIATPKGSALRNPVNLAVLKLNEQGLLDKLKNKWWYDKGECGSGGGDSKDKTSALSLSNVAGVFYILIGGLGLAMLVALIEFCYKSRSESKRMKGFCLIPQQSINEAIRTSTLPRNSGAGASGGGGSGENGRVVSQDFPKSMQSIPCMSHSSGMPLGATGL
Turning to `NCCCNCCCCNCCCNC(=O)c1cc2ccccc2[nH]1`, the half-maximal inhibitory concentration (IC50) entry was “Not Active”.

Usually IC50 stands for the concentration that gives 50% inhibition.

Values taken from ChEMBL document CHEMBL1139497, “The effects of conformational constraints and steric bulk in the amino acid moiety of philanthotoxins on AMPAR antagonism” (J Med Chem, 2005).
